The test system of assay [1] is Green Peach Aphid (Myzus persicae) (GPA) (MYZUPE). Put plainly: Green peach aphid (GPA) foliar spray bioassay on cabbage seedlings. Type of assay: in vivo. The settings on record: 72 h, 200 ppm foliar spray on cabbage seedlings, graded after three days, Abbott-corrected % control, disclosed compounds (TABLE 2), read-out: GPA % Control (or Mortality) rating. The procedure: Bioassay for GPA was prepared as follows: Cabbage seedlings grown in 3-inch pots, with 2-3 small (3-5 cm) true leaves, were used as test substrate. The seedlings were infested with 20-50 GPA (adult and nymph stages) one day prior to chemical application. Four pots with individual seedlings were used for each treatment. The tested compounds (2 mg) were dissolved in 2 mL of acetone/methanol (1:1) solvent to form stock solutions of 1000 ppm tested compound. The stock solutions were diluted five times with an aqueous solution containing 0.025% TWEEN® 20 surfactant, which is polyoxyethylene (20) sorbitan monolaurate, to obtain the solution at 200 ppm tested compound. A hand-held aspirator-type sprayer was used for spraying the solution to both sides of cabbage leaves until runoff. The control plants (solvent check) were sprayed with the diluent only containing 20% by volume of acetone/methanol (1:1) solvent. Treated plants were held in a holding room for three days at approximately 25° C. and ambient relative humidity (RH) prior to grading. Evaluation was conducted by counting the number of live aphids per plant under a microscope. Percent control was measured by using Abbott's correction formula (W. S. Abbott, “A Method of Computing the Effectiveness of an Insecticide,” J. Econ. Entomol. 18 (1925), pp. 265-267) as follows. Corrected % Control=100*(X−Y)/X
X=No. of live aphids on solvent check plants and
Y=No. of live aphids on treated plants
(§1) The comparative compounds were tested for insecticidal activities against GPA and WF pests using the same test protocols described above for the disclosed compounds.

Assay [2] has as its system Sweetpotato Whitefly-crawler (Bemisia tabaci) (WF) (BEMITA). Put plainly: Sweetpotato whitefly-crawler (WF) foliar spray assay on cotton plants. Format: in vivo. The settings on record: 216 h, 200 ppm foliar spray on cotton plants, graded after 9 days, Abbott-corrected % control, disclosed compounds (TABLE 2), read-out: WF % Control (or Mortality) rating. As to the method:
Foliar spray assay for WF was prepared as follows: Cotton plants (Gossypium hirsutum) grown in 3-inch pots, with 1 small (4-5 cm) true leaf, were used as test substrate. The plants were infested with 200-400 whitefly eggs 4-5 days prior to chemical application. Four pots with individual plants were used for each treatment. Tested compounds (2 mg) were dissolved in 1 mL of acetone solvent, forming stock solutions of 2000 ppm tested compound.
The stock solutions were diluted ten times with 0.025% TWEEN® 20 surfactant in H2O (diluents) to obtain the solution at 200 ppm tested compound. A hand-held aspirator-type sprayer was used for spraying the solution to both sides of cotton leaves until runoff. The control plants (solvent check) were sprayed with the diluent only containing 10% by volume of acetone solvent. Treated plants were held in a holding room for 9 days at approximately 25° C. and ambient relative humidity (RH) prior to grading. Evaluation was conducted by counting the number of live 3-4 nymph stage per plant under a microscope. Percent control was measured by using Abbott's correction formula (W. S. Abbott, “A Method of Computing the Effectiveness of an Insecticide,” J. Econ. Entomol. 18 (1925), pp. 265-267) as follows. Corrected % Control=100*(X−Y)/X
X=No. of live nymphs on solvent check plants and
Y=No. of live nymphs on treated plants.
as §1

As to `O=C1c2cn(-c3cccnc3)nc2CCN1CC=NOCc1ccccc1` (racemic) [Compound P27, 2-(4-oxo-2-(pyridin-3-yl)-2,4,6,7-tetrahydro-5H-pyrazolo[4,3-c]pyridin-5-yl)acetaldehyde O-benzyl oxime], the mortality at 200 ppm in assay [1] and in assay [2] was 80 to 100% throughout.
For `O=C1c2cn(-c3cccnc3)nc2CCN1CC(=NOCc1ccccc1)c1ccccc1` (racemic) [Compound P36, 5-(2-((benzyloxy)imino)-2-phenylethyl)-2-(pyridin-3-yl)-2,5,6,7-tetrahydro-4H-pyrazolo[4,3-c]pyridin-4-one], the results for the mortality at 200 ppm in assay [1] and in assay [2] were 0 to 80% and 80 to 100%, respectively.
Turning to `CON=CCN1CCc2nn(-c3cccnc3)cc2C1=O` (single isomer, unassigned) [Compound P26, 2-(4-oxo-2-(pyridin-3-yl)-2,4,6,7-tetrahydro-5H-pyrazolo[4,3-c]pyridin-5-yl)acetaldehyde O-methyl oxime], the mortality – broadly, the percentage killed – at 200 ppm in assay [1] fell in the range of 80 to 100%.
Consider `CON=C(C)CN1CCc2nn(-c3cccnc3)cc2C1=O` (single isomer, unassigned) [Compound P30, 5-(2-(methoxyimino)propyl)-2-(pyridin-3-yl)-2,5,6,7-tetrahydro-4H-pyrazolo[4,3-c]pyridin-4-one], for which the mortality at 200 ppm in assay [1] and in assay [2] was 80 to 100% in each case.
With `CC(CN1CCc2nn(-c3cccnc3)cc2C1=O)=NOCc1ccccc1` (single isomer, unassigned) [Compound P31, 5-(2-((benzyloxy)imino)propyl)-2-(pyridin-3-yl)-2,5,6,7-tetrahydro-4H-pyrazolo[4,3-c]pyridin-4-one], the mortality at 200 ppm in assay [1] and in assay [2] was 80 to 100% each time.
With `CON=C(CN1CCc2nn(-c3cccnc3)cc2C1=O)c1ccccc1` (single isomer, unassigned) [Compound P32, 5-(2-(methoxyimino)-2-phenylethyl)-2-(pyridin-3-yl)-2,5,6,7-tetrahydro-4H-pyrazolo[4,3-c]pyridin-4-one], the mortality at 200 ppm is 80 to 100% in assay [1] and 0 to 80% in assay [2].
Regarding `CON=C(CN1CCc2nn(-c3cccnc3)cc2C1=O)c1cccc(C(F)(F)F)c1` (single isomer, unassigned) [Compound P34, 5-(2-(methoxyimino)-2-(3-(trifluoromethyl)phenyl)ethyl)-2-(pyridin-3-yl)-2,5,6,7-tetrahydro-4H-pyrazolo[4,3-c]pyridin-4-one], the mortality at 200 ppm in assay [1] was 80 to 100%.
On to `CON=C(CN1CCc2nn(-c3cccnc3)cc2C1=O)c1ccc(C(F)(F)F)cc1` (single isomer, unassigned) [Compound P35, 5-(2-(methoxyimino)-2-(4-(trifluoromethyl)phenyl)ethyl)-2-(pyridin-3-yl)-2,5,6,7-tetrahydro-4H-pyrazolo[4,3-c]pyridin-4-one], for which the mortality at 200 ppm in assay [1] was 80 to 100%.
Still for that read-out and setting: to `CC(=O)CN1CCc2nn(-c3cccnc3)cc2C1=O` [Compound CA4, 5-(2-oxopropyl)-2-(pyridin-3-yl)-2,5,6,7-tetrahydro-4H-pyrazolo[4,3-c]pyridin-4-one] belongs 80 to 100%.
Take `O=C1c2cn(-c3cccnc3)nc2CCN1Cc1ccc(F)cc1` [Compound F3, 5-(4-fluorobenzyl)-2-(pyridin-3-yl)-6,7-dihydro-2H-pyrazolo[4,3-c]pyridin-4(5H)-one]: the mortality at 200 ppm in assay [2] was in the range of 0 to 80%.
Consider `O=C(CN1CCc2nn(-c3cccnc3)cc2C1=O)c1cccc(C(F)(F)F)c1` [Compound P20, 5-(2-oxo-2-(3-(trifluoromethyl)phenyl)ethyl)-2-(pyridin-3-yl)-2,5,6,7-tetrahydro-4H-pyrazolo[4,3-c]pyridin-4-one], for which the mortality at 200 ppm in assay [1] fell in the range of 80 to 100%.
On the same count and under the same terms, with `O=C(CN1CCc2nn(-c3cccnc3)cc2C1=O)c1ccc(C(F)(F)F)cc1` [Compound P21, 5-(2-oxo-2-(4-(trifluoromethyl)phenyl)ethyl)-2-(pyridin-3-yl)-2,5,6,7-tetrahydro-4H-pyrazolo[4,3-c]pyridin-4-one] the figure was 80 to 100%.
